# Test results as given in patent publication EP3928779A1 (Chugai Seiyaku Kabushiki Kaisha, priority 2014, dated 2016).
# Tested on: rat small-intestinal brush border membrane vesicles
# Assay: Inhibitory effect on 33PO4 uptake into rat small-intestinal brush border membrane vesicles (rapid filtration method)
# Format: biochemical
# Conditions: 33PO4 uptake into rat small-intestinal BBMVs; test compound 1 µM; reacted for 60 seconds
# Method in brief: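 Uptake of ^33PO4 was measured by rapid filtration and liquid scintillation counting of filter-retained vesicles, after quenching with ice-cold 110 mM NaCl/1 mM KH2PO4/10 mM HEPES pH 7.5. Vesicles were brush border membranes from the upper small intestine of female Wistar rats aged 4–5 weeks.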
row,Compound,Rate of uptake inhibition (%) (1 µM)
1,CN1N(Cc2ccc(OCCN3CCOC(C)(C)C3)c(F)c2F)C(=O)C(C(=O)Nc2ccc(C(F)(F)F)cc2-c2cc(C(F)(F)F)ncn2)=C(O)C12CCC2 [Example 342],43
2,C[C@H]1COC[C@H](C)N1CCOc1ccc(CN2C(=O)C(C(=O)Nc3ccc(C(F)(F)F)cc3-c3cc(C(F)(F)F)ncn3)=C(O)C3(CCC3)N2C)c(F)c1F [Example 343],68
3,C[C@@H]1COC[C@H](C)N1CCOc1ccc(CN2C(=O)C(C(=O)Nc3ccc(C(F)(F)F)cc3-c3cc(C(F)(F)F)ncn3)=C(O)C3(CCC3)N2C)c(F)c1F [Example 344],58
4,COC(=O)CN(C)CCOc1ccc(CN2C(=O)C(C(=O)Nc3ccc(C(F)(F)F)cc3-c3cc(C(F)(F)F)ncn3)=C(O)C3(CCC3)N2C)c(F)c1F [Example 346],42
5,CN(CCO)CCOc1ccc(CN2C(=O)C(C(=O)Nc3ccc(C(F)(F)F)cc3-c3cc(C(F)(F)F)ncn3)=C(O)C3(CCC3)N2C)c(F)c1F [Example 347],28
6,COCCN(CCOC)CCOc1ccc(CN2C(=O)C(C(=O)Nc3ccc(C(F)(F)F)cc3-c3cc(C(F)(F)F)ncn3)=C(O)C3(CCC3)N2C)c(F)c1F [Example 348],31
7,COCC(C)(C)N(C)CCOc1ccc(CN2C(=O)C(C(=O)Nc3ccc(C(F)(F)F)cc3-c3cc(C(F)(F)F)ncn3)=C(O)C3(CCC3)N2C)c(F)c1F [Example 349],55
8,COC(C)(C)CN(C)CCOc1ccc(CN2C(=O)C(C(=O)Nc3ccc(C(F)(F)F)cc3-c3cc(C(F)(F)F)ncn3)=C(O)C3(CCC3)N2C)c(F)c1F [Example 350],45
9,CN1N(Cc2ccc(OCCN(CCO)CCO)c(F)c2F)C(=O)C(C(=O)Nc2ccc(C(F)(F)F)cc2-c2cc(C(F)(F)F)ncn2)=C(O)C12CCC2 [Example 351],22
10,CN1N(Cc2ccc(OCCn3cncn3)c(F)c2F)C(=O)C(C(=O)Nc2ccc(C(F)(F)F)cc2-c2cc(C(F)(F)F)ncn2)=C(O)C12CCC2 [Example 352],27
11,CC(=O)NCCN(C)CCOc1ccc(CN2C(=O)C(C(=O)Nc3ccc(C(F)(F)F)cc3-c3cc(C(F)(F)F)ncn3)=C(O)C3(CCC3)N2C)c(F)c1F [Example 353],26
12,CC(=O)N(C)CCN(C)CCOc1ccc(CN2C(=O)C(C(=O)Nc3ccc(C(F)(F)F)cc3-c3cc(C(F)(F)F)ncn3)=C(O)C3(CCC3)N2C)c(F)c1F [Example 354],31
13,COC(=O)[C@@H]1CCCN1CCOc1ccc(CN2C(=O)C(C(=O)Nc3ccc(C(F)(F)F)cc3-c3cc(C(F)(F)F)ncn3)=C(O)C3(CCC3)N2C)c(F)c1F [Example 355],36
14,COC1(C)CN(CCOc2ccc(CN3C(=O)C(C(=O)Nc4ccc(C(F)(F)F)cc4-c4cc(C(F)(F)F)ncn4)=C(O)C4(CCC4)N3C)c(F)c2F)C1 [Example 356],58
15,CSC1CN(CCOc2ccc(CN3C(=O)C(C(=O)Nc4ccc(C(F)(F)F)cc4-c4cc(C(F)(F)F)ncn4)=C(O)C4(CCC4)N3C)c(F)c2F)C1 [Example 357],45
16,CN1N(Cc2ccc(OCCN3CCC(N4CCOCC4)CC3)c(F)c2F)C(=O)C(C(=O)Nc2ccc(C(F)(F)F)cc2-c2cc(C(F)(F)F)ncn2)=C(O)C12CCC2 [Example 358],34
17,CN1CCN(CCOc2ccc(CN3C(=O)C(C(=O)Nc4ccc(C(F)(F)F)cc4-c4cc(C(F)(F)F)ncn4)=C(O)C4(CCC4)N3C)c(F)c2F)CC1=O [Example 359],37
18,CN1N(Cc2ccc(OCCN3CCN(CCO)CC3)c(F)c2F)C(=O)C(C(=O)Nc2ccc(C(F)(F)F)cc2-c2cc(C(F)(F)F)ncn2)=C(O)C12CCC2 [Example 360],21
19,CN1N(Cc2ccc(OCCN3CCN(CCOCCO)CC3)c(F)c2F)C(=O)C(C(=O)Nc2ccc(C(F)(F)F)cc2-c2cc(C(F)(F)F)ncn2)=C(O)C12CCC2 [Example 361],20
20,CN1N(Cc2ccc(OCCN3CCN(CCCO)CC3)c(F)c2F)C(=O)C(C(=O)Nc2ccc(C(F)(F)F)cc2-c2cc(C(F)(F)F)ncn2)=C(O)C12CCC2 [Example 362],17
21,CN1N(Cc2ccc(OCCN3CCN(S(C)(=O)=O)CC3)c(F)c2F)C(=O)C(C(=O)Nc2ccc(C(F)(F)F)cc2-c2cc(C(F)(F)F)ncn2)=C(O)C12CCC2 [Example 363],11
22,CN(C)C(=O)N1CCN(CCOc2ccc(CN3C(=O)C(C(=O)Nc4ccc(C(F)(F)F)cc4-c4cc(C(F)(F)F)ncn4)=C(O)C4(CCC4)N3C)c(F)c2F)CC1 [Example 364],36

row,Compound,Rate of uptake inhibition (%) (1 µM)
1,CN(CCOc1ccc(CN2C(=O)C(C(=O)Nc3ccc(C(F)(F)F)cc3-c3cc(C(F)(F)F)ncn3)=C(O)C3(CCCC3)N2C)c(F)c1F)C1CCOCC1 [Example 365],34
2,CN(CCOc1ccc(CN2C(=O)C(C(=O)Nc3ccc(C(F)(F)F)cc3-c3cc(C(F)(F)F)ncn3)=C(O)C3(CCCC3)N2C)c(F)c1F)C1CCOC1 (centres unmarked) [Example 366],38
3,CN1N(Cc2ccc(OCCN3C4CCC3COC4)c(F)c2F)C(=O)C(C(=O)Nc2ccc(C(F)(F)F)cc2-c2cc(C(F)(F)F)ncn2)=C(O)C12CCCC2 [Example 367],43
4,COC(=O)CN(C)CCOc1ccc(CN2C(=O)C(C(=O)Nc3ccc(C(F)(F)F)cc3-c3cc(C(F)(F)F)ncn3)=C(O)C3(CCCC3)N2C)c(F)c1F [Example 368],26
5,CN1N(Cc2ccc(OCCN3CC(F)(F)C3)c(F)c2F)C(=O)C(C(=O)Nc2ccc(C(F)(F)F)cc2-c2cc(C(F)(F)F)ncn2)=C(O)C12CCCC2 [Example 369],43
6,C[C@@H]1COC[C@H](C)N1CCOc1ccc(CN2C(=O)C(C(=O)Nc3ccc(C(F)(F)F)cc3-c3cc(C(F)(F)F)ncn3)=C(O)C3(CCCC3)N2C)c(F)c1F [Example 370],41
7,CN1N(Cc2ccc(OCCN3CCOCC3(C)C)c(F)c2F)C(=O)C(C(=O)Nc2ccc(C(F)(F)F)cc2-c2cc(C(F)(F)F)ncn2)=C(O)C12CCCC2 [Example 371],38
8,COCC(C)(C)N(C)CCOc1ccc(CN2C(=O)C(C(=O)Nc3ccc(C(F)(F)F)cc3-c3cc(C(F)(F)F)ncn3)=C(O)C3(CCCC3)N2C)c(F)c1F [Example 372],38
9,CN(CCO)CCOc1ccc(CN2C(=O)C(C(=O)Nc3ccc(C(F)(F)F)cc3-c3cc(C(F)(F)F)ncn3)=C(O)C3(CCCC3)N2C)c(F)c1F [Example 373],27
10,CN1N(Cc2ccc(OCCN3CCC(N4CCOCC4)CC3)c(F)c2F)C(=O)C(C(=O)Nc2ccc(C(F)(F)F)cc2-c2cc(C(F)(F)F)ncn2)=C(O)C12CCCC2 [Example 374],42
11,COC[C@@H]1CCCN1CCOc1ccc(CN2C(=O)C(C(=O)Nc3ccc(C(F)(F)F)cc3-c3cc(C(F)(F)F)ncn3)=C(O)C3(CCCC3)N2C)c(F)c1F [Example 375],31
12,CN1N(Cc2ccc(OCCN3CCN(CCO)CC3)c(F)c2F)C(=O)C(C(=O)Nc2ccc(C(F)(F)F)cc2-c2cc(C(F)(F)F)ncn2)=C(O)C12CCCC2 [Example 376],33
13,COCCN1CCN(CCOc2ccc(CN3C(=O)C(C(=O)Nc4ccc(C(F)(F)F)cc4-c4cc(C(F)(F)F)ncn4)=C(O)C4(CCCC4)N3C)c(F)c2F)CC1 [Example 377],29
14,CN1N(Cc2ccc(OCCN3CCN(CCOCCO)CC3)c(F)c2F)C(=O)C(C(=O)Nc2ccc(C(F)(F)F)cc2-c2cc(C(F)(F)F)ncn2)=C(O)C12CCCC2 [Example 378],35
15,CN1N(Cc2ccc(OCCN3CCN(S(C)(=O)=O)CC3)c(F)c2F)C(=O)C(C(=O)Nc2ccc(C(F)(F)F)cc2-c2cc(C(F)(F)F)ncn2)=C(O)C12CCCC2 [Example 379],37
16,CN1N(Cc2ccc(OCCN3[C@@H]4COC[C@H]3C4)c(F)c2F)C(=O)C(C(=O)Nc2ccc(C(F)(F)F)cc2-c2cc(C(F)(F)F)ncn2)=C(O)C12CCCC2 [Example 380],43
17,"CN1N(Cc2ccc(OCCN[C@@H](CC(=O)O)C(=O)O)c(F)c2F)C(=O)C(C(=O)Nc2ccc(C(F)(F)F)cc2-c2cc(C(F)(F)F)ncn2)=C(O)C12CCCC2 [Example 381, (2S)-2-[2-[2,3-Difluoro-4-[[10-hydroxy-6-methyl-8-oxo-9-[[4-trifluoromethyl-2-[6-(trifluoromethyl)pyrimidin-4-yl]phenyl]carbamoyl]-6,7-diazaspiro[4.5]dec-9-en-7-yl]methyl]phenoxy]ethylamino]butanedioate]",28
18,"CN1N(Cc2ccc(OCCNC(CC(=O)O)CC(=O)O)c(F)c2F)C(=O)C(C(=O)Nc2ccc(C(F)(F)F)cc2-c2cc(C(F)(F)F)ncn2)=C(O)C12CCCC2 [Example 382, 3-[2-[2.3-Difluoro-4-[[10-hydroxy-6-methyl-8-oxo-9-[[4-(trifluoromethyl)-2-[6-(trifluoromethyl)pyrimidin-4-yl]phenyl]carbamoyl]-6,7-diazaspiro[4.5]dee-9-en-7-yl)methyl]phenoxy]ethylamino]pentanedioate]",21
19,CN1N(Cc2ccc(OCCCOC[C@H](O)CO)c(F)c2F)C(=O)C(C(=O)Nc2ccc(C(F)(F)F)cc2-c2ccc(C(F)(F)F)nc2)=C(O)C12CCC2 [Example 383],26
20,CN1N(Cc2ccc(OCCCCOC[C@H](O)CO)c(F)c2F)C(=O)C(C(=O)Nc2ccc(C(F)(F)F)cc2-c2ccc(C(F)(F)F)nc2)=C(O)C12CCC2 [Example 384],39
21,CN1N(Cc2ccc(OCCCCCOC[C@H](O)CO)c(F)c2F)C(=O)C(C(=O)Nc2ccc(C(F)(F)F)cc2-c2ccc(C(F)(F)F)nc2)=C(O)C12CCC2 [Example 385],39
22,CN1N(Cc2ccc(OCCCOC[C@H](O)CO)c(F)c2F)C(=O)C(C(=O)Nc2ccc(C(F)(F)F)cc2-c2ccc(C(F)(F)F)nc2)=C(O)C12CCCC2 [Example 386],36
